Where two headings read alike, the source gives them in different places.
How the values were obtained:
Assay type in all cases: in vivo
[1] = test system: woolly cupgrass (Eriochloa villosa); assay: Test B pre-/postemergence plant response; conditions: for pest or weed control at 31 g/ha: 31 g ai/ha; for pest or weed control at 125 g/ha: 125 g ai/ha
Summary of the method: (§1)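 Greenhouse herbicide screen. Pre- and postemergence (1- to 4-leaf) spray of compound in solvent/surfactant mixture; loam–sand soil for pre, peat/vermiculite medium for post. Visual control rating 0–100 at 13 to 15 days after treatment.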

[2] = test system: wheat (Triticum aestivum); assay: Test B pre-/postemergence plant response; conditions: for plant injury at 125 g/ha: 125 g ai/ha
Summary of the method: as §1

[3] = test system: goosegrass (Eleusine indica); assay: Test B pre-/postemergence plant response; conditions: for pest or weed control at 31 g/ha: 31 g ai/ha; for pest or weed control at 125 g/ha: 125 g ai/ha
Summary of the method: as §1

[4] = test system: morningglory (Ipomoea coccinea); assay: Test B pre-/postemergence plant response
Summary of the method: as §1

[5] = test system: johnsongrass (Sorghum halepense); assay: Test B pre-/postemergence plant response; conditions: for pest or weed control at 31 g/ha: 31 g ai/ha; for pest or weed control at 125 g/ha: 125 g ai/ha
Summary of the method: as §1

[6] = test system: giant foxtail (Setaria faberii); assay: Test B pre-/postemergence plant response; conditions: for pest or weed control at 31 g/ha: 31 g ai/ha; for pest or weed control at 125 g/ha: 125 g ai/ha
Summary of the method: as §1

rice (Oryza sativa) = assay: Test B flooded paddy test; conditions: Oryza sativa
Summary of the method: (§2)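 2-leaf seedlings; pots flooded 3 cm over soil at treatment; cpd dosed into floodwater, depth kept constant. Greenhouse 13–15 d. Visual rating vs untreated controls, 0 = no effect, 100 = complete control.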

[7] = test system: umbrella sedge (Cyperus difformis); assay: Test B flooded paddy test; conditions: Cyperus difformis, 360 h
Summary of the method: as §2

[8] = test system: barnyardgrass (Echinochloa crus-galli); assay: Test B flooded paddy test; conditions: Echinochloa crus-galli, 360 h
Summary of the method: as §2

[9] = test system: ducksalad (Heteranthera limosa); assay: Test B flooded paddy test; conditions: Heteranthera limosa, 360 h
Summary of the method: as §2

[10] = test system: morningglory (Ipomoea spp.); assay: Test A pre-/postemergence plant response; conditions: Ipomoea, 240 h, read-out: Plant response rating, Morningglory; for pest or weed control at 125 g/ha: 125 g ai/ha; for pest or weed control at 500 g/ha: 500 g ai/ha, approx. ten days
Summary of the method: (§3)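 Seeds planted in loam soil/sand blend; test chemicals in non-phytotoxic solvent mixture with surfactant applied as directed soil spray preemergence and, concurrently, postemergence to plants 2–10 cm tall at one- to two-leaf stage. Greenhouse ~10 days; visual injury vs untreated controls, 0 (no effect) to 100 (complete control).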

[11] = test system: pigweed (Amaranthus retroflexus); assay: Test A pre-/postemergence plant response; conditions: Amaranthus retroflexus, 240 h, read-out: Plant response rating, Pigweed; for pest or weed control at 125 g/ha: 125 g ai/ha; for pest or weed control at 500 g/ha: 500 g ai/ha, approx. ten days
Summary of the method: as §3

[12] = 62 g ai/ha, postemergence, 0 is no effect, 100 is complete control, 13 to 15 days
[13] = Preemergence, 250 g ai/ha, 0 to 100 scale
[14] = post-emergence, Postemergence, 0 to 100 scale where 0 is no effect and 100 is complete control
[15] = post-emergence, Postemergence, 0 to 100 scale, 0 = no effect, 100 = complete control
[16] = pre-emergence, Preemergence, 0 to 100 scale, 0 = no effect, 100 = complete control
[17] = pre-emergence, Preemergence, visual injury, 0 to 100 scale (0 no effect, 100 complete control)

Compound: O=C1CCCC(O)=C1C(=O)c1cnc(-c2cccnc2)n(-c2ccccc2)c1=O [Compound 113, 5-[(2-hydroxy-6-oxo-1-cyclohexen-1-yl)carbonyl]-3-phenyl-2-(3-pyridinyl)-4(3H)-pyrimidone]
- Cupgrass, Woolly plant response rating (0 to 100 scale) [1, 12]: 85
- pest or weed control at 31 g/ha ([1]; Eriochloa villosa, post-emergence, postemergence, scale 0 to 100, 0 is no effect, 100 is complete control, read-out: Plant response rating, Cupgrass, Woolly): 85%
- pest or weed control at 125 g/ha ([1]; Eriochloa villosa, post-emergence, Postemergence, scale 0 to 100 (0 no effect, 100 complete control), read-out: Plant response rating, Cupgrass, Woolly): 95%
- pest or weed control at 250 g/ha ([1]; Eriochloa villosa, post-emergence, Postemergence, 250 g ai/ha, scale 0 to 100 (0 no effect, 100 complete control), read-out: Plant response rating, Cupgrass, Woolly): 95%
- pest or weed control at 31 g/ha ([1]; Eriochloa villosa, pre-emergence, Preemergence, scale 0 to 100 (0 no effect, 100 complete control), read-out: Plant response rating, Cupgrass, Woolly): 5%
- pest or weed control at 62 g/ha ([1]; Eriochloa villosa, pre-emergence, Preemergence, 62 g ai/ha, scale 0 to 100, 0 no effect, 100 complete control, read-out: Plant response rating, Cupgrass, Woolly): 50%
- pest or weed control at 125 g/ha ([1]; Eriochloa villosa, pre-emergence, Preemergence, scale 0 to 100, 0 no effect, 100 complete control, read-out: Plant response rating, Cupgrass, Woolly): 85%
- Cupgrass, Woolly plant response rating [1, 13]: 95
- Wheat plant response rating (0 to 100 scale) [2, 12]: 15
- Wheat plant response rating [2, 13]: 10
- plant injury at 125 g/ha ([2]; Triticum aestivum, post-emergence, Postemergence, scale 0 to 100 (0 no effect, 100 complete control), read-out: Plant response rating, Wheat): 40%
- plant injury at 31 g/ha ([2]; Triticum aestivum, pre-emergence, Preemergence, 31 g ai/ha, scale 0 to 100 (0 no effect, 100 complete control), read-out: Plant response rating, Wheat): 0%
- plant injury at 62 g/ha ([2]; Triticum aestivum, pre-emergence, Preemergence, 62 g ai/ha, scale 0 to 100 (0 no effect, 100 complete control), read-out: Plant response rating, Wheat): 0%
- plant injury at 125 g/ha ([2]; Triticum aestivum, pre-emergence, Preemergence, scale 0 to 100, 0 no effect, 100 complete control, read-out: Plant response rating, Wheat): 10%
- Goosegrass plant response rating (0 to 100 scale) [3, 12]: 75
- pest or weed control at 31 g/ha ([3]; Eleusine indica, post-emergence, postemergence, scale 0 to 100, 0 is no effect, 100 is complete control, read-out: Plant response rating, Goosegrass): 70%
- pest or weed control at 125 g/ha ([3]; Eleusine indica, post-emergence, Postemergence, scale 0 to 100 (0 no effect, 100 complete control), read-out: Plant response rating, Goosegrass): 85%
- pest or weed control at 250 g/ha ([3]; Eleusine indica, post-emergence, Postemergence, 250 g ai/ha, scale 0 to 100 (0 no effect, 100 complete control), read-out: Plant response rating, Goosegrass): 90%
- pest or weed control at 31 g/ha ([3]; Eleusine indica, pre-emergence, Preemergence, scale 0 to 100 (0 no effect, 100 complete control), read-out: Plant response rating, Goosegrass): 75%
- pest or weed control at 62 g/ha ([3]; Eleusine indica, pre-emergence, Preemergence, 62 g ai/ha, scale 0 to 100, 0 no effect, 100 complete control, read-out: Plant response rating, Goosegrass): 90%
- pest or weed control at 125 g/ha ([3]; Eleusine indica, pre-emergence, Preemergence, scale 0 to 100, 0 no effect, 100 complete control, read-out: Plant response rating, Goosegrass): 100%
- Goosegrass plant response rating [3, 13]: 100
- Morningglory plant response rating (0 to 100 scale) [4, 12]: 100
- pest or weed control at 31 g/ha ([4]; Ipomoea, post-emergence, 31 g ai/ha, postemergence, scale 0 to 100, 0 is no effect, 100 is complete control, read-out: Plant response rating, Morningglory): 98%
- pest or weed control at 125 g/ha ([4]; Ipomoea, post-emergence, Postemergence, 125 g ai/ha, scale 0 to 100 (0 no effect, 100 complete control), read-out: Plant response rating, Morningglory): 100%
- pest or weed control at 250 g/ha ([4]; Ipomoea, post-emergence, Postemergence, 250 g ai/ha, scale 0 to 100 (0 no effect, 100 complete control), read-out: Plant response rating, Morningglory): 100%
- Johnsongrass plant response rating (0 to 100 scale) [5, 12]: 85
- Johnsongrass plant response rating [5, 13]: 70
- pest or weed control at 31 g/ha ([5]; Sorghum halepense, post-emergence, postemergence, scale 0 to 100, 0 is no effect, 100 is complete control, read-out: Plant response rating, Johnsongrass): 65%
- pest or weed control at 125 g/ha ([5]; Sorghum halepense, post-emergence, Postemergence, scale 0 to 100 (0 no effect, 100 complete control), read-out: Plant response rating, Johnsongrass): 90%
- pest or weed control at 250 g/ha ([5]; Sorghum halepense, post-emergence, Postemergence, 250 g ai/ha, scale 0 to 100 (0 no effect, 100 complete control), read-out: Plant response rating, Johnsongrass): 95%
- pest or weed control at 31 g/ha ([5]; Sorghum halepense, pre-emergence, Preemergence, scale 0 to 100 (0 no effect, 100 complete control), read-out: Plant response rating, Johnsongrass): 0%
- pest or weed control at 62 g/ha ([5]; Sorghum halepense, pre-emergence, Preemergence, 62 g ai/ha, scale 0 to 100, 0 no effect, 100 complete control, read-out: Plant response rating, Johnsongrass): 5%
- pest or weed control at 125 g/ha ([5]; Sorghum halepense, pre-emergence, Preemergence, scale 0 to 100, 0 no effect, 100 complete control, read-out: Plant response rating, Johnsongrass): 60%
- Foxtail, Giant plant response rating (0 to 100 scale) [6, 12]: 85
- Foxtail, Giant plant response rating [6, 13]: 85
- pest or weed control at 31 g/ha ([6]; Setaria faberi, post-emergence, postemergence, scale 0 to 100, 0 is no effect, 100 is complete control, read-out: Plant response rating, Foxtail, Giant): 80%
- pest or weed control at 125 g/ha ([6]; Setaria faberi, post-emergence, Postemergence, scale 0 to 100 (0 no effect, 100 complete control), read-out: Plant response rating, Foxtail, Giant): 90%
- pest or weed control at 250 g/ha ([6]; Setaria faberi, post-emergence, Postemergence, 250 g ai/ha, scale 0 to 100 (0 no effect, 100 complete control), read-out: Plant response rating, Foxtail, Giant): 95%
- pest or weed control at 31 g/ha ([6]; Setaria faberi, pre-emergence, Preemergence, scale 0 to 100 (0 no effect, 100 complete control), read-out: Plant response rating, Foxtail, Giant): 5%
- pest or weed control at 62 g/ha ([6]; Setaria faberi, pre-emergence, Preemergence, 62 g ai/ha, scale 0 to 100, 0 no effect, 100 complete control, read-out: Plant response rating, Foxtail, Giant): 40%
- pest or weed control at 125 g/ha ([6]; Setaria faberi, pre-emergence, Preemergence, scale 0 to 100, 0 no effect, 100 complete control, read-out: Plant response rating, Foxtail, Giant): 60%
- plant injury at 250 g/ha (rice (Oryza sativa); 250 g ai/ha, flooded paddy test, visual rating on 0 to 100 scale (0 no effect, 100 complete control) after 13 to 15 days, read-out: Plant response rating, Flood, Rice): 0%
- plant injury at 62 g/ha (rice (Oryza sativa); Flood (flooded paddy test), 62 g ai/ha, scale of 0 to 100 where 0 is no effect and 100 is complete control, 13 to 15 days, read-out: Plant response rating, Rice): 0%
- pest or weed control at 250 g/ha ([7]; 250 g ai/ha, flooded paddy test, visual rating on 0 to 100 scale (0 no effect, 100 complete control) after 13 to 15 days, read-out: Plant response rating, Flood, Sedge, Umbrella): 70%
- pest or weed control at 62 g/ha ([7]; Flood (flooded paddy test), 62 g ai/ha, scale of 0 to 100 where 0 is no effect and 100 is complete control, 13 to 15 days, read-out: Plant response rating, Sedge, Umbrella): 40%
- pest or weed control at 250 g/ha ([8]; 250 g ai/ha, flooded paddy test, visual rating on 0 to 100 scale (0 no effect, 100 complete control) after 13 to 15 days, read-out: Plant response rating, Flood, Barnyardgrass): 15%
- pest or weed control at 62 g/ha ([8]; Flood (flooded paddy test), 62 g ai/ha, scale of 0 to 100 where 0 is no effect and 100 is complete control, 13 to 15 days, read-out: Plant response rating, Barnyardgrass): 10%
- pest or weed control at 250 g/ha ([9]; 250 g ai/ha, flooded paddy test, visual rating on 0 to 100 scale (0 no effect, 100 complete control) after 13 to 15 days, read-out: Plant response rating, Flood, Ducksalad): 70%
- pest or weed control at 62 g/ha ([9]; Flood (flooded paddy test), 62 g ai/ha, scale of 0 to 100 where 0 is no effect and 100 is complete control, 13 to 15 days, read-out: Plant response rating, Ducksalad): 25%
- pest or weed control at 125 g/ha [10, 14]: 100%
- pest or weed control at 500 g/ha [10, 15]: 100%
- pest or weed control at 125 g/ha [10, 16]: 30%
- pest or weed control at 500 g/ha [10, 17]: 80%
- pest or weed control at 125 g/ha [11, 14]: 100%
- pest or weed control at 500 g/ha [11, 15]: 100%
- pest or weed control at 125 g/ha [11, 16]: 100%
- pest or weed control at 500 g/ha [11, 17]: 100%

Source: US8952024B2, “Herbicidal pyrimidone derivatives” (E I du Pont de Nemours and Company, priority 2009, dated 2015)
